In patent US8354106B2, “Antibodies against HMGB1 and fragments thereof” (The Feinstein Institute for Medical Research, priority 2005, dated 2013):
Where no end group is shown, it is not given here. The star is where a group is joined. Biotin = O=C1N[C@H]2[C@H](CS[C@H]2CCCCC(=O)*)N1

Key:
[1] = tested on: allogeneic T cells co-cultured with BM-DCs; assay: Functional maturation of BM-DCs: allogeneic T cell proliferation in mixed lymphocyte reaction (3H-thymidine); type: cell-based, mouse; details: BM-DCs from C57/BL6 mice exposed 48 h; peptide 200 μg/ml, HMGB1-Bx 50 μg/ml; DC:T cell ratio 1:120, 5 days; FIG. 4A
Experimental: Immature BM-DCs that were generated from C57/BL6 mice (FIG. 4A) or Balb/c mice (FIG. 4B) were incubated for 48 h with either HMGB1-Bx (50 μg/ml), a particular HMGB1 peptide (200 μg/ml), LPS (100 ng/ml) or were left untreated (medium). T cells were isolated by negative selection using the mouse SpinSep antibody cocktail from StemCell Technologies (Vancouver, Calif.), according to the manufacturer's instructions. The cell purity of the isolated T cells was routinely ˜99% pure. In order to assess levels of T cell activation and proliferation, cells were plated at 10^5 cells per well in a round-bottomed 96-well tray at a DC:T cell ratio of 1:120 for 5 days in the medium described above. The microcultures were pulsed with (^3H)-thymidine ([…]) for the final 8 h of culture. Cell cultures were harvested onto glass fiber filters with an automated multiple sample harvester and the amount of isotope incorporation was determined by liquid scintillation β-emission. Responses are reported as mean cpm of thymidine incorporation by triplicate cultures (±SEM).

[2] = tested on: human immature monocyte-derived dendritic cells (DCs); assay: Cytokine/chemokine secretion by human immature monocyte-derived dendritic cells (ELISA); type: cell-based; set-up: key to TNFα secretion / IL-18 secretion / IL-8 secretion / IL-10 secretion / IL-6 secretion / IL-12 secretion: “+” indicates an increase; “−” indicates no change relative to untreated cells (medium); details: for secretion of IL-6 by DCs / cytokine secretion by human DCs / secretion of IL-12 (p70) / secretion of TNF-α / secretion of IL-18 / secretion of IL-8: human DCs; for secretion of IL-6 by DCs: FIGS. 1A, 1B; for secretion of IL-6 by DCs / IL-6 secretion / IL-8 secretion / IL-10 secretion / IL-12 secretion / IL-18 secretion / TNFα secretion / secretion of IL-12 (p70) / secretion of TNF-α / secretion of IL-18 / secretion of IL-8: peptides 200 μg/ml; for secretion of IL-6 by DCs / secretion of IL-12 (p70) / secretion of TNF-α / secretion of IL-18 / secretion of IL-8: 48 h; for IL-6 secretion / IL-8 secretion / IL-10 secretion / IL-12 secretion / IL-18 secretion / TNFα secretion: HUMAN DC, ELISA 48 h after exposure, relative to untreated cells; for IL-6 secretion / IL-8 secretion / IL-10 secretion / IL-12 secretion / IL-18 secretion / TNFα secretion / secretion of IL-18 / secretion of IL-8: HMGB1-Bx 50 μg/ml; for secretion of IL-12 (p70): FIG. 1C; for secretion of TNF-α: FIG. 1D; for secretion of IL-18: FIG. 1E; for secretion of IL-8: FIG. 1F
Experimental: Peripheral blood mononuclear cells (PBMCs) were isolated from the blood of normal volunteers (Long Island Blood Services, Melville, N.Y.) over a Ficoll-Hypaque (Amersham Biosciences, Uppsala, Sweden) density gradient. CD14^+ monocytes were isolated from PBMCs by positive selection using anti-CD14 beads (Miltenyi Biotech., Auburn, Calif.), following the manufacturer's instructions. To generate DCs, CD14^+ cells were cultured in RPMI 1640 medium supplemented with 2 mM L-glutamine (GIBCO-BRL Life Technologies, Grand Island, N.Y.), 50 μM 2-mercaptoethanol (Sigma, St. Louis, Mo.), 10 mM HEPES (GIBCO-BRL), penicillin (100 U/ml), streptomycin (100 μg/ml) (GIBCO-BRL), and 5% human AB serum (Gemini Bio-Products, Woodland, Calif.). Cultures were maintained for 7 days in 6-well trays (3×10^6 cells/well) supplemented with 1000 U GM-CSF per ml (Immunex, Seattle, Wash.) and 200 U IL-4 per ml (R&D Systems, Minneapolis, Minn.) at days 0, 2, 4 and 6.
(§1) Recombinant HMGB1-B box domain (HMGB1-Bx) was expressed in Escherichia coli and purified as described by Li, et al. (Mol. Med. 9:37-45; J. Immunol. Methods 289:211-223 (2004)). Purified HMGB1-Bx contained trace amounts of LPS (19 pg LPS/μg HMGB1-Bx) as measured by the chromogenic Limulus amebocyte lysate assay (BioWhittacker Inc, Walkersville, Md.). All experiments using HMGB1-Bx, as well as the HMGB1 peptides, were performed in the presence of polymyxin B (200 U/ml) to neutralize the amount of contaminating LPS in the HMGB1-Bx and peptide preparations. We have previously shown that the DC stimulatory capacity of HMGB1-Bx requires an intact tertiary structure and is not due to contaminating amounts of LPS, as trypsinization abolished HMGB1-Bx activity (Messmer, et al., J. Immunol. 173: 307-313 (2004); the entire teachings of which are incorporated herein by reference).
(§2) Secreted cytokine/chemokine levels were measured by ELISA (Pierce Boston Technology Center, SearchLight™ Proteome Arrays Multiplex Sample Testing Services, Woburn, Mass.) 48 h after addition of the various peptides. Polymyxin B (200 U/ml) was added to all cultures, except those containing LPS, before the stimuli were added. Immature monocyte-derived human dendritic cells (DCs) and immature bone-marrow derived murine dendritic cells (BM-DCs) were cultured either in the presence of HMGB1 peptides (200 μg/ml), whose sequences map to different regions of the HMGB1 protein (see Table 1), the entire HMGB1 B-box domain (HMGB1-Bx) (50 μg/ml), or LPS (100 ng/ml). Untreated cells (medium) were tested as a control. Each peptide was named according to the corresponding position of its first amino acid within the full-length HMGB1 sequence. All peptides were N-terminally biotinylated except “Hp-106 (non bio)”.

[3] = tested on: murine bone marrow-derived dendritic cells (BM-DCs); assay: Cytokine/chemokine secretion by murine bone marrow-derived dendritic cells (ELISA); type: cell-based, mouse; set-up: key to TNFα secretion / IL-18 secretion / IL-8 secretion / IL-10 secretion / IL-2 secretion / IL-1β secretion / IL-5 secretion / IL-6 secretion / IL-12 secretion: “+” indicates an increase; “−” indicates no change relative to untreated cells (medium); details: for secretion of IL-1β: FIG. 2A; for secretion of IL-2: FIG. 2C; for secretion of IL-5: FIG. 2E; for secretion of IL-12 (p70): FIGS. 2B, 2H
Experimental: Bone marrow-derived DCs (BM-DCs) were generated using modifications of the original method described by Inaba, et al. (J. Exp. Med. 1 76:1693-1702 (1992)). In brief, bone marrow suspensions were incubated with red cell lysis buffer (PUREGENE™ RBC Lysis Solution, Gentra Systems, Minneapolis, Minn.) to remove red blood cells. After washing in media, lymphocytes and Ia-positive cells were killed with a cocktail of monoclonal antibodies (mAbs) and rabbit complement for 60 min at 37° C. The mAbs that were used were GK1.5 anti-CD4, TIB211 anti-CD8, TIB 120 anti-Ia, and TIB 146 anti B220 (these mAbs were kindly provided by Dr. Ralph Steinman). The cells were subsequently cultured in media containing 5% FCS and 10 ng/ml recombinant mouse GM-CSF (R&D Systems, Minneapolis, Minn.) for 7 days. For some experiments, the cells were further purified at day 7 using CD11c^+-microbeads (Miltenyi Biotech., Auburn, Calif.), according to the manufacturer's instructions.
as §1, §2

[4] = MURINE DC, ELISA 48 h after exposure, peptides 200 μg/ml, HMGB1-Bx 50 μg/ml, relative to untreated cells
[5] = murine BM-DCs, peptides 200 μg/ml, HMGB1-Bx 50 μg/ml, 48 h

Sequence	secretion of IL-6 by DCs [2]	IL-1β secretion [3, 4]	IL-2 secretion [3, 4]	IL-5 secretion [3, 4]	IL-6 secretion [3, 4]	IL-10 secretion [3, 4]	IL-12 secretion [3, 4]	cytokine secretion by murine BM-DCs ([3]; murine BM-DCs)	secretion of IL-1β [3, 5]	secretion of IL-2 [3, 5]	secretion of IL-5 [3, 5]	secretion of IL-12 (p70) [3, 5]	IL-6 secretion [2]	IL-8 secretion [2]	IL-10 secretion [2]	IL-12 secretion [2]	IL-18 secretion [2]	TNFα secretion [2]	cytokine secretion by human DCs [2]	secretion of IL-12 (p70) [2]	other results
SERWKTMSAKEKGKFEDM (Biotin-SERWKTMSAKEKGKFEDM; listed as Homo sapiens) [Hp-46]	did not induce IL-6 secretion																				proliferation of resting allogeneic T cells (3H thymidine incorporation) [1]: did not show enhanced T cell stimulatory activity
HPDASVNFSEFSKKCSER (Biotin-HPDASVNFSEFSKKCSER; listed as Homo sapiens) [Hp-31]	induced secretion	+	+	+	−	−	+	induced cytokine secretion by murine BM-DCs	enhanced the production	enhanced the production	enhanced the production	enhanced the production	+	−	−	+	+	+	induced cytokine secretion by human DCs	induced secretion	secretion of IL-6 ([3]; murine BM-DCs): not; secretion of IL-10 ([3]; murine BM-DCs): not; secretion of TNF-α [2]: induced secretion; secretion of IL-18 [2]: induced secretion; secretion of IL-8 [2]: did not induce secretion
CSEYRPKIKGEHPGLSIG [Hp-106 (non bio), Hp-106 peptide that was not biotinylated at its N-terminus]	failed to stimulate IL-6 secretion											did not enhance IL-12 secretion									
DPNAPKRPPSAFFLFCSE (Biotin-DPNAPKRPPSAFFLFCSE; listed as Homo sapiens) [Hp-91]	enhanced IL-6 secretion	+	+	+	−	−	+	induced cytokine secretion by murine BM-DCs	increased production	increased production	increased production		+	−	−	+	+	+	induced cytokine secretion by human DCs	induced secretion	IL-8 secretion [3, 4]: −; IL-18 secretion [3, 4]: −; TNFα secretion [3, 4]: −; secretion of IL-8 ([3]; murine BM-DCs, FIG. 2D, peptides 200 μg/ml, HMGB1-Bx 50 μg/ml, 48 h): not; secretion of IL-18 ([3]; murine BM-DCs, FIG. 2F, peptides 200 μg/ml, HMGB1-Bx 50 μg/ml, 48 h): not; secretion of TNF-α ([3]; murine BM-DCs, FIG. 2G, peptides 200 μg/ml, HMGB1-Bx 50 μg/ml, 48 h): not; secretion of TNF-α [2]: induced secretion; secretion of IL-18 [2]: induced secretion; secretion of IL-8 [2]: did not induce secretion
